Test results taken from patent US9284272B2, “Inhibitors of histone methyltransferase G9a” (AbbVie Inc., priority 2014, dated 2016).

Tests used:
H3K9me2 = H3K9me2 levels by AlphaLISA in HT1080 cells; assay type: cell-based; settings: 48 h, 0-1,000 nM
[1] = Cytotoxicity, CellTiter Glo; assay type: cell-based; settings: human, THP-1 cells, 5-day proliferation
[2] = system: subcutaneous MV4;11 xenografts; experiment: In vivo efficacy study, MV4;11 xenograft tumor volume; parameters: species or system SCID/bg mice; settings: 30 mg/kg/day osmotic mini-pump for 14 days, compared to vehicle
Experimental: The efficacy of the compound of Example 7 was further examined by monitoring tumor volume during treatment with the compound of Example 7. Subcutaneous MV4;11 xenografts were implanted in SCID/bg mice and allowed to grow to 200 mm^3. […] Tumors were measured at the indicated time points (i.e., from 20 days to 55 days post-inoculation of the mice with the MV4;11 cells) and tumor growth was plotted as a function of time (FIG. 9).

[3] = Cytotoxicity, CellTiter Glo; assay type: cell-based; settings: human, OPM2 cells, 5-day proliferation
[4] = Cytotoxicity, CellTiter Glo; assay type: cell-based; settings: human, KMS11 cells, 5-day proliferation
[5] = Cytotoxicity, CellTiter Glo; assay type: cell-based; settings: human, US2OS cells, 7-day proliferation, neural crest derived lines
[6] = PK/PD study, plasma and tissue concentrations; assay type: in vivo, SCID/bg mice; settings: 30 mg/kg/day osmotic mini-pump, samples at 2, 7, 14 days
Source text: Specifically, subcutaneous MV4;11 xenografts were implanted in SCID/bg mice and allowed to grow to 200 mm^3. […] In particular, by day 14, dimethylation of lysine 9 of histone H3 in the tumor tissue was reduced by 46 percent as compared to the vehicle.

[7] = Cytotoxicity, CellTiter Glo; assay type: cell-based; settings: human, K562 cells, 5-day proliferation
MV4;11 cells [8] = experiment: Differentiation, proliferation, viability and cell cycle of MV4;11 cells, 14 days; assay type: cell-based, human
Source text: MV4;11 cells are a human acute myelocytic leukemia (AML) cell line derived from a human with leukemia.

MV4;11 cells [9] = experiment: Combination of G9a inhibitor and ATRA on MV4;11 proliferation (CellTiter Glo); assay type: cell-based, human; settings: 0, 300 nM or 3 μM Example 7 with 0-100 nM ATRA, 5 days
Experimental: Cellular proliferation was determined by CellTiter Glo assay.

[10] = system: HL-60 acute promyelocytic cells; experiment: Differentiation, proliferation, viability and cell cycle of HL-60 cells, 4 days; assay type: cell-based; settings: 0-10 μM
Experimental: Cells were then fixed, stained with an anti-CD11b antibody and analyzed by flow cytometry (FIG. 6A).
Cell cycle analysis (PI staining) of HL-60 cells following the 4 day treatment at the indicated concentrations (i.e., 0 μM, 0.1 μM, 0.3 μM, 1 μM, 3 μM, and 10 μM) was also performed (FIG. 6C).

in vitro = assay type: cell-based; settings: PH-1; 7-day proliferation, neural crest derived lines; read-out: IC50 cytotoxicity
[11] = Cytotoxicity, CellTiter Glo; assay type: cell-based; settings: human, IMR-32 cells, 12-day proliferation, neural crest derived lines
[12] = Cytotoxicity, CellTiter Glo; assay type: cell-based; settings: human, LNCap cells, 5-day proliferation
[13] = Cytotoxicity, CellTiter Glo; assay type: cell-based; settings: human, Kasume-1 cells, 5-day proliferation

**Q.** Which “H3K9me2 reduction compared with UNC0638” value (H3K9me2) does the source give for `COc1cc2c(cc1OCCCN1CCCC1)N=C(N)C21CCC1` [Example 7, 5′-methoxy-6′-(3-(pyrrolidin-1-yl)propoxy)spiro[cyclobutane-1,3′-indol]-2′-amine] here?
**A.** equivalent effects on H3K9me2 reduction

**Q.** And the IC50 at 5 day [1]?
**A.** > 10 µM

**Q.** What about the “tumor growth (tumor volume)” value [2] of the same compound?
**A.** growth inhibition of the tumors

**Q.** And the IC50 at 5 day [3]?
**A.** > 10 µM

**Q.** And the IC50 at 5 day [4]?
**A.** > 10 µM

**Q.** And the IC50 at 7 day [5]?
**A.** > 10 µM

**Q.** What about the “accumulation in tumor tissue (as well as liver and muscle tissue)” value [6] of the same compound?
**A.** significant accumulation

**Q.** And the IC50 at 5 day [7]?
**A.** > 10 µM

**Q.** What about the “MV4;11 cells no longer proliferating (CellTiter Glo)” value (MV4;11 cells [8]; 3 μM) of the same compound?
**A.** about 100%

**Q.** What about the viability at 3 µM (MV4;11 cells [8]; Homo sapiens, MV4-11, 336 h, 3 μM, read-out: viable MV4;11 cells (trypan blue exclusion)) of the same compound?
**A.** ~20%

**Q.** And the “cell cycle analysis (PI staining)” value (MV4;11 cells [8]; MV4;11 cells, 0-3 μM)?
**A.** more cells were observed to be in the subG1/G0 phase

**Q.** What about the “expression of marker CD11b by flow cytometry (differentiation)” value (MV4;11 cells [8]; MV4;11 cells, 0-3 μM) of the same compound?
**A.** more cells in the population expressed the marker CD11b

**Q.** What about the “cells positive for CD11b” value (MV4;11 cells [8]; MV4;11 cells, 3 μM) of the same compound?
**A.** about 90%

**Q.** What about the “MV4;11 proliferation, combination with ATRA” value (MV4;11 cells [9]) of the same compound?
**A.** additive effects on MV4;11 proliferation

**Q.** What about the “cell cycle analysis (PI staining)” value [10] of the same compound?
**A.** increased numbers of cells were in the G1 phase

**Q.** And the “cell proliferation (CellTiter Glo)” value [10]?
**A.** inhibited proliferation of the HL-60 cells

**Q.** And the “cell viability (trypan blue exclusion)” value [10]?
**A.** largely unaffected

**Q.** What about the “differentiation (CD11b, flow cytometry)” value [10] of the same compound?
**A.** induced differentiation of the HL-60 cells

**Q.** And the IC50 at 7 day (in vitro)?
**A.** > 10 µM

**Q.** What about the IC50 at 12 day [11] of the same compound?
**A.** > 10 µM

**Q.** What about the IC50 at 5 day [12] of the same compound?
**A.** > 10 µM

**Q.** What about the IC50 at 5 day [13] of the same compound?
**A.** > 10 µM
